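Interpolation was linear, between the two tested concentrations surrounding the appropriate level; five concentrations were tested over 48 hours in 96-well plates. GI50 marks 50% less growth.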 Active and inactive are the calls of the source. No stated cut-off is given here; in the data, active = GI50 up to about 1.1 µM and inactive = higher. Where a SMILES comes first, the peptide text is derived from it. The star is where a group is joined. CH2Cl = ClC*
Assays:
Assay in all cases: NCI tumour cell line growth inhibition, 48 h
MOLT-4 = tested on: MOLT-4
HCC 2998 = tested on: HCC 2998
SNB-75 = tested on: SNB-75
SF-295 = tested on: SF-295
PC-3 = tested on: PC-3
K562 = tested on: K562
CCRF-CEM = tested on: CCRF-CEM
LOX IMVI = tested on: LOX IMVI
SNB-19 = tested on: SNB-19
ACHN = tested on: ACHN
HCT-116 = tested on: HCT-116
HOP-92 = tested on: HOP-92
Hs-578T = tested on: Hs-578T
OVCAR-3 = tested on: OVCAR-3
DU-145 = tested on: DU-145
SF-268 = tested on: SF-268
MCF7 = tested on: MCF7
OVCAR-5 = tested on: OVCAR-5
M14 = tested on: M14
786-0 = tested on: 786-0

SMILES	GI50 (MOLT-4)	GI50 (HCC 2998)	GI50 (SNB-75)	GI50 (SF-295)	GI50 (PC-3)	GI50 (K562)	GI50 (CCRF-CEM)	GI50 (LOX IMVI)	GI50 (SNB-19)	GI50 (ACHN)	GI50 (HCT-116)	GI50 (HOP-92)	GI50 (Hs-578T)	GI50 (OVCAR-3)	GI50 (DU-145)	GI50 (SF-268)	GI50 (MCF7)	GI50 (OVCAR-5)	GI50 (M14)	GI50 (786-0)
Cn1c2ccccc2c(=O)c2c(O)cc3c(c21)C=CC1(CCCC1)O3	> 100 µM (inactive)	> 100 µM (inactive)	> 100 µM (inactive)	19 µM (inactive)	> 100 µM (inactive)	3.51 µM (inactive)	> 100 µM (inactive)	> 100 µM (inactive)	> 100 µM (inactive)	> 100 µM (inactive)	> 100 µM (inactive)	25.7 µM (inactive)	95.7 µM (inactive)	> 100 µM (inactive)	> 100 µM (inactive)	> 100 µM (inactive)	> 100 µM (inactive)	33.7 µM (inactive)	> 100 µM (inactive)	76.4 µM (inactive)
C=CCn1c(=O)c2ccccc2[n+]2c(-c3cccc([N+](=O)[O-])c3)csc12	24.7 µM (inactive)	> 100 µM (inactive)	17.5 µM (inactive)	53.1 µM (inactive)	30.9 µM (inactive)	28.4 µM (inactive)	27.5 µM (inactive)	56.8 µM (inactive)	> 100 µM (inactive)	> 100 µM (inactive)	38.9 µM (inactive)	56.2 µM (inactive)	24.4 µM (inactive)	33.9 µM (inactive)	50.4 µM (inactive)	48.9 µM (inactive)	42.9 µM (inactive)	> 100 µM (inactive)	62.7 µM (inactive)	48.9 µM (inactive)
CC(=O)NC(CC(C)C)C(=O)NC(Cc1ccccc1)C(=O)CCl (stereo not drawn) (Ac-Leu-Phe-CH2Cl; configuration not given here)	1.84 µM (inactive)	14.9 µM (inactive)	14.1 µM (inactive)	18.8 µM (inactive)	14 µM (inactive)	1.63 µM (inactive)	1.32 µM (inactive)	2.67 µM (inactive)	20 µM (inactive)	11.1 µM (inactive)	5.22 µM (inactive)	5.78 µM (inactive)	17.3 µM (inactive)	13.2 µM (inactive)	12.1 µM (inactive)	17.9 µM (inactive)	5.04 µM (inactive)	17.5 µM (inactive)	6.89 µM (inactive)	4 µM (inactive)
Cc1cc(S(=O)(=O)Nc2nnc3cc(C(F)(F)F)cc(C)n23)c(S)cc1Cl	> 100 µM (inactive)	33.7 µM (inactive)	> 71.1 µM (inactive)	55.1 µM (inactive)	> 95.3 µM (inactive)	> 100 µM (inactive)	> 100 µM (inactive)	> 100 µM (inactive)	27.5 µM (inactive)	> 100 µM (inactive)	> 81.8 µM (inactive)	> 76.9 µM (inactive)	> 72.4 µM (inactive)	64.1 µM (inactive)	> 100 µM (inactive)	> 100 µM (inactive)	> 31.6 µM (inactive)	> 84.9 µM (inactive)	77.3 µM (inactive)	> 80.5 µM (inactive)
COc1ccc2oc(=O)c(CC=C(C)C)c(O)c2c1C	36.4 µM (inactive)	> 100 µM (inactive)	> 100 µM (inactive)	> 100 µM (inactive)	> 100 µM (inactive)	> 100 µM (inactive)	> 100 µM (inactive)	> 100 µM (inactive)	> 100 µM (inactive)	> 100 µM (inactive)	> 100 µM (inactive)		> 100 µM (inactive)	> 100 µM (inactive)	> 100 µM (inactive)	> 100 µM (inactive)	> 100 µM (inactive)	> 100 µM (inactive)	> 100 µM (inactive)	> 100 µM (inactive)
Cc1n(Cc2ccccc2)c2c([n+]1C)C(=O)c1ccccc1C2=O	0.0421 µM (active)	0.236 µM (active)	0.0736 µM (active)	0.199 µM (active)	0.0838 µM (active)	0.0366 µM (active)	0.456 µM (active)	0.0473 µM (active)	0.0581 µM (active)	0.873 µM (active)	0.0416 µM (active)	0.369 µM (active)	0.415 µM (active)	< 0.0136 µM (active)	0.156 µM (active)	0.0274 µM (active)	0.0158 µM (active)	0.167 µM (active)	0.0902 µM (active)	0.0845 µM (active)
O=c1oc2ccccc2cc1/C=N/N1C(=S)N(c2ccccc2)C(=N\c2ccccc2)/C1=N/c1ccccc1	> 100 µM (inactive)	> 100 µM (inactive)	1.65 µM (inactive)	28.1 µM (inactive)	14 µM (inactive)	> 100 µM (inactive)			> 100 µM (inactive)	39.6 µM (inactive)	41.4 µM (inactive)	> 100 µM (inactive)	> 100 µM (inactive)	> 100 µM (inactive)	> 100 µM (inactive)	> 100 µM (inactive)	> 100 µM (inactive)	> 100 µM (inactive)	> 100 µM (inactive)	> 100 µM (inactive)

From ChEMBL document CHEMBL1201862, “PubChem BioAssay data set” (2004)
